# In patent US9089129B2, “Non-aerosol foaming alcohol hand sanitizer” (AMERICAN STERILIZER COMPANY, priority 2011, dated 2015):
# Tested on: not listed separately
# Assay: Foam quality and stability screen in 70% w/w ethanol solution
# Format: physicochemical
# Design: key: Poor: little to no foam generated; Moderate: some foam generated, and/or foam generated collapsed rapidly; Good: large amount of foam was generated and foam was stable (did not collapse rapidly)
# Conditions: approximately one gram of component in 15 grams of 70% w/w ethanol solution (aqueous), shaken by hand for 15 seconds
# Protocol: A number of different components were screened to evaluate their ability to create a stable foam in a 70% w/w ethanol solution (aqueous). For this evaluation, approximately one gram of each component was added to 15 grams of the ethanol solution in a vial.
row,Compound,Foam Profile
1,OCC(O)CO [Glycerin],Poor
2,Glycereth-18 Ethylhexanoate,Moderate
3,CCCCCCCCCCCCCCCCCCCCCC[N+](C)(C)C.COS(=O)(=O)[O-] [Behentrimonium Methosulfate],Poor
4,CCCCCCCC/C=C\CCCCCCCC[N+](C)(C)Cc1ccccc1.[Cl-] [Olealkonium chloride],Poor
5,Quaternium-26,Poor
6,CO[C@H]1CO[C@H]2[C@@H]1OC[C@H]2OC [Dimethyl Isosorbide],Poor
7,PPG-15 Stearyl Ether,Poor
8,Alkyl Glucoside,Poor
9,CCCCCCCCCCCCCC(=O)NCCC[N+](C)(C)CC(O)CO.[Cl-] (centres unmarked) [Myristamidopropyl PG-dimonium chloride],Poor
10,Isostearamidopropyl Morpholine Lactate,Poor
11,Cocamidopropyl PG-Dimonium Chloride Phosphate,Poor
12,Glycereth-7 Cocoate,Poor
13,POE-2 Coco Amine,Poor
14,Lauramine Oxide,Poor
15,CC(O)C(=O)O.CCCCCCCCCCCCCCCCCC(=O)NCCCN(C)C [Stearamidopropyl dimethylamine lactate],Poor
16,Quaternium-92,Poor
17,CCCCCCCCCC[N+](C)(C)CCCCCCCCCC.[Cl-] [Didecyl dimethyl ammonium chloride],Poor
18,CCCCCCCCCCCC(=O)OC(C)C(=O)OC(C)C(=O)[O-].[Na+] (centres unmarked) [Sodium Lauroyl Lactylate],Poor

# Tested on: Serratia marcescens
# Assay: Pigskin model, 1 and 5 inoculation/treatment cycles
# Conditions: 1 inoculation/treatment cycle, FIG. 4
# Protocol: Each sample was evaluated at two different inoculation/treatment cycles, i.e., at 1 inoculation/treatment and 5 inoculations/treatments. Tests were completed using the pigskin model, the inoculant, Serratia marcescens, and 1 and 5 inoculation/treatment cycles. The “pigskin model” is a method designed to simulate a HCPHW test using pigskins prepared according to the method described in U.S. Pat. No. 7,985,773 to […] et al., incorporated herein by reference. In this example, pigskin pairs were inoculated with bacteria, rubbed together for 15 seconds, and allowed to air dry for 1 minute. The two different ethanol solutions having concentrations of 62% w/w and 70% w/w and two different product formulations N and O, one having 62% w/w ethanol (N) and the other having 70% w/w ethanol (O), were applied to pairs of pigskins (0.2 ml per pair/0.1 ml per piece). The pairs of pigskins (having the same treatment) were rubbed together for 30 seconds and allowed to air dry for 4 minutes. Neutralizer was then applied to the pigskins, they were debrided for 30 seconds, serially diluted and plated.
row,Compound,log reduction
1,CCO [ethanol],did provide efficacy

# Same assay, conditions: 5 inoculation/treatment cycles, FIG. 4
row,Compound,log reduction
1,CCO [ethanol],efficacy decreased
